Experimental data reported in patent publication US20260061080A1, “FLUORESCENT COMPOUND BASED ON NEW INDOCYANINE GREEN IR820, AND PREPARATION AND USE THEREOF” (Shanghai Fluoresoma Medical Technology Co., Ltd., priority 2023, published 2026).

What was measured:
[1] = test system: tumor sites of tumor-bearing mice; experiment: Fluorescence imaging of IR820-cRGD in living tumor-bearing mice; type: in vivo; conditions: tail vein injection, solution in pure water at 10 μM (or equal equivalent probe concentration), observed 2 hours later; FIG. 5
Protocol: Three tumor-bearing mice were administered with an IR820-cRGD solution in pure water at a concentration of 10 μM, a […] solution in pure water at an equal equivalent probe concentration, and an IR820 solution in pure water at an equal equivalent probe concentration through tail vein injection, respectively. 2 hours later, tumor sites of the mice were observed using an in vivo imaging instrument for small animals to obtain imaging situations.

[2] = test system: breast cancer cells (MCF-7), cervical cancer cells (Hela), normal cells (CHO); conditions: 10 μL of 1 mM DMSO mother solution of probe in 2 mL culture dish; CHO vs MCF-7 and Hela; FIG. 4
Protocol: An instrument model used for cell imaging is a Leica TCS SP5 II confocal laser scanning microscope using a HC×PLAPO 63×oil objective (NA: 1.40).
The experiment was carried out in three groups, with one group using normal cells (CHO), one group using breast cancer cells (MCF-7), and one group using cervical cancer cells (Hela). Before an imaging test, a cultured cell culture solution was first sucked away, and the cells were washed once with a PBS buffer solution, and then washed once with DMEM or 1640. 10 μL of a formulated DMSO mother solution with a probe concentration of 1 mM was measured and added into a 2 mL culture dish containing a fresh DMEM or 1640 culture medium. After culture was completed, the excessive culture solution was first removed, the cells were washed with a PBS buffer solution (pH 7.4) to remove an excessive probe, and then the imaging test was carried out on the cells separately using a confocal fluorescence microscope.

For `CC1(C)C(/C=C/C2=C(Cl)C(=C/C=C3/N(CCCCS(=O)(=O)[O-])c4ccc5ccccc5c4C3(C)C)/CCC2)=[N+](CCCCS(=O)(=O)O)c2ccc3ccccc3c21` [IR820], the “fluorescence signal at the tumor site” value [1] was “weak fluorescence signal”.
With `CC1(C)C(/C=C/C2=C(Oc3ccc(CCC(=O)NCCCC[C@@H]4NC(=O)[C@@H](Cc5ccccc5)NC(=O)[C@H](CC(=O)O)NC(=O)CNC(=O)[C@H](CCCNC(=N)N)NC4=O)cc3)C(=C/C=C3/N(CCCCS(=O)(=O)O)c4ccc5ccccc5c4C3(C)C)/CCC2)=[N+](CCCCS(=O)(=O)O)c2ccc3ccccc3c21` [IR820-cRGD] the “fluorescence signal at the tumor site” value [1] was “highly bright fluorescence signal” and the “fluorescence signal in cells (selectivity for tumor cells)” value [2] was “greater selective fluorescence signals for the tumor cells”.
